By melting point is commonly meant the temperature, or range, at which the solid turns liquid.

SMILES strings stand for the structures.

The source of these data is patent US11974572B2, “Fungicidal compositions” (SYNGENTA PARTICIPATIONS AG, priority 2017, dated 2024).

Data set [1] has as its system Puccinia recondita f. sp. tritici. The data set is described as follows: Example A1: Puccinia recondita f. sp. tritici / wheat / leaf disc preventative (brown rust). The data set is classed as in vivo. Conditions: foliar, 200 ppm in the applied formulation, wheat leaf segments, compared to untreated control leaf disks, read-out: disease control. The protocol:
(§1) Leaf disks or leaf segments of various plant species are cut from plants grown in a greenhouse. The cut leaf disks or segments are placed in multiwell plates (24-well format) onto water agar. The leaf disks are sprayed with a test solution before (preventative) or after (curative) inoculation. Compounds to be tested are prepared as DMSO solutions (max. 10 mg/ml) which are diluted to the appropriate concentration with 0.025% Tween20 just before spraying. The inoculated leaf disks or segments are incubated under defined conditions (temperature, relative humidity, light, etc.) according to the respective test system. A single evaluation of disease level is carried out 3 to 14 days after inoculation, depending on the pathosystem. Percent disease control relative to the untreated check leaf disks or segments is then calculated.
Wheat leaf segments cv. Kanzler were placed on agar in multiwell plates (24-well format) and sprayed with the formulated test compound diluted in water. […] The inoculated leaf segments were incubated at 19° C. and 75% relative humidity (rh) under a light regime of 12 hours light/12 hours darkness in a climate cabinet and the activity of a compound was assessed as percent disease control compared to untreated when an appropriate level of disease damage appears in untreated check leaf segments (7 to 9 days after application). […]

Data set [2] shares this test system. The data set is described as follows: Example A2: Puccinia recondita f. sp. tritici / wheat / leaf disc curative (brown rust). Type of data set: in vivo. As to conditions: foliar, 200 ppm in the applied formulation, wheat leaf segments, compared to untreated control leaf disks, read-out: disease control. The protocol:
as §1
Wheat leaf segments cv. Kanzler are placed on agar in multiwell plates (24-well format). The leaf segments are then inoculated with a spore suspension of the fungus. […] The leaf segments were incubated at 19° C. and 75% relative humidity under a light regime of 12 hours light/12 hours darkness in a climate cabinet and the activity of a compound was assessed as percent disease control compared to untreated when an appropriate level of disease damage appears in untreated check leaf segments (6 to 8 days after application). […]

A further data set has as its system Phakopsora pachyrhizi. The data set is described as follows: Example A3: Phakopsora pachyrhizi / soybean / leaf disc preventative (Asian soybean rust). Conditions: foliar, 200 ppm in the applied formulation, soybean leaf disks, compared to untreated control leaf disks, read-out: disease control. The data set is classed as in vivo. The method, then:
as §1
Soybean leaf disks are placed on water agar in multiwell plates (24-well format) and sprayed with the formulated test compound diluted in water. One day after application leaf discs are inoculated by spraying a spore suspension on the lower leaf surface. […] The activity of a compound is assessed as percent disease control compared to untreated when an appropriate level of disease damage appears in untreated check leaf disks (12 to 14 days after application). […]

The subject of data set [3] is Glomerella lagenarium (Colletotrichum lagenarium). Nature of the data set: Example A4: Glomerella lagenarium (Colletotrichum lagenarium) liquid culture / cucumber / preventative (anthracnose). Type of data set: cell-based. Conditions: Colletotrichum orbiculare, 20 ppm in the applied formulation, compared to untreated control, read-out: disease control. The protocol:
Mycelia fragments or conidia suspensions of a fungus prepared either freshly from liquid cultures of the fungus or from cryogenic storage, are directly mixed into nutrient broth. DMSO solutions of the test compound (max. 10 mg/ml) are diluted with 0.025% Tween20 by a factor of 50 and 10 μl of this solution is pipetted into a microtiter plate (96-well format). The nutrient broth containing the fungal spores/mycelia fragments is then added to give an end concentration of the tested compound. The test plates are incubated in the dark at 24° C. and 96% relative humidity. The inhibition of fungal growth is determined photometrically after 2 to 7 days, depending on the pathosystem, and percent antifungal activity relative to the untreated check is calculated.
Conidia of the fungus from cryogenic storage are directly mixed into nutrient broth (PDB—potato dextrose broth). After placing a (DMSO) solution of test compound into a microtiter plate (96-well format), the nutrient broth containing the fungal spores is added.
The following compounds at 20 ppm in the applied formulation give at least 80% disease control in this test when compared to untreated control under the same conditions, which show extensive disease development.

`COCC(=O)N(Cc1ccc(-c2noc(C(F)(F)F)n2)cc1)CC(F)(F)F` [X.09, 2-methoxy-N-(2,2,2-trifluoroethyl)-N-[[4-[5-(trifluoromethyl)-1,2,4-oxadiazol-3-yl]phenyl]methyl]acetamide] returned a melting point of 92.6 to 94.3 °C.
The same measure, in the same setting: as for `CON(Cc1ccc(-c2noc(C(F)(F)F)n2)cc1)C(=O)NC1CC1` [X.15, 3-cyclopropyl-1-methoxy-1-[[4-[5-(trifluoromethyl)-1,2,4-oxadiazol-3-yl]phenyl]methyl]urea], the figure is 84 to 87 °C; as for `CCONC(=O)N(Cc1ccc(-c2noc(C(F)(F)F)n2)cc1)OC` [X.16, 3-ethoxy-1-methoxy-1-[[4-[5-(trifluoromethyl)-1,2,4-oxadiazol-3-yl]phenyl]methyl]urea], 107 to 110 °C; as for `C=CCNC(=O)N(Cc1ccc(-c2noc(C(F)(F)F)n2)cc1)OC` [X.17, 3-allyl-1-methoxy-1-[[4-[5-(trifluoromethyl)-1,2,4-oxadiazol-3-yl]phenyl]methyl]urea], 64 to 70 °C.
Turning to `CON(Cc1ccc(-c2noc(C(F)(F)F)n2)cc1)C(=O)NC(C)C` [X.19, 3-isopropyl-1-methoxy-1-[[4-[5-(trifluoromethyl)-1,2,4-oxadiazol-3-yl]phenyl]methyl]urea], the melting point fell in the range of 106 to 107.3 °C.
For `C#CCNC(=O)N(Cc1ccc(-c2noc(C(F)(F)F)n2)cc1)OC` [X.20, 1-methoxy-3-prop-2-ynyl-1-[[4-[5-(trifluoromethyl)-1,2,4-oxadiazol-3-yl]phenyl]methyl]urea], the melting point lay in the range of 88.9 to 90.6 °C.
For the compound `CN(Cc1ccc(-c2noc(C(F)(F)F)n2)cc1)C(=O)NCC1CC1` [X.22, 3-(cyclopropylmethyl)-1-methyl-1-[[4-[5-(trifluoromethyl)-1,2,4-oxadiazol-3-yl]phenyl]methyl]urea], the pest or weed control at 200 ppm (in data set [1]; in data set [2]; in the data set with Phakopsora pachyrhizi) was no less than 80% throughout. Besides, the inhibition of growth at 20 ppm in data set [3] is no less than 80%.
Turning to `CCN(Cc1ccc(-c2noc(C(F)(F)F)n2)cc1)C(=O)NCC(F)(F)F` [X.23, 1-ethyl-3-(2,2,2-trifluoroethyl)-1-[[4-[5-(trifluoromethyl)-1,2,4-oxadiazol-3-yl]phenyl]methyl]urea], the pest or weed control at 200 ppm (in data set [1]; in data set [2]; in the data set on Phakopsora pachyrhizi) was no less than 80% in each case. For the same compound, the inhibition of growth at 20 ppm in data set [3] is no less than 80%.
